Structures are written as SMILES.

A word on the inhibition: it is the change of the read-out against control, counted positive when it falls. Higher therefore signals a response far below the control. What is called IC50 is the concentration that inhibits the measured activity by half. Higher therefore signals a need for much substance.

T1 sequence (Q9H3N8 whole entry): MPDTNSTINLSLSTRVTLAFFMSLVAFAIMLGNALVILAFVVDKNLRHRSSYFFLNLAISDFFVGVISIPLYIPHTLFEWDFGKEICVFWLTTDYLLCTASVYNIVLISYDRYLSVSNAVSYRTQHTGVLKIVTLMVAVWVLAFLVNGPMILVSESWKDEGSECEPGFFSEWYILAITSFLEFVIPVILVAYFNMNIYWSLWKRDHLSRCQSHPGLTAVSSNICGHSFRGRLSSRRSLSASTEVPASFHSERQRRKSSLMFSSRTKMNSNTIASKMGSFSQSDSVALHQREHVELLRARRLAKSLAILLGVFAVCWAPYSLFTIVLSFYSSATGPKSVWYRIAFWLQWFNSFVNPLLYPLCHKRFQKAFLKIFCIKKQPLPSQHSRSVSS

One test concerns the target T1, histamine H4 receptor (Homo sapiens, UniProt Q9H3N8).
T1 construct: expressed in transfected cells; host or cells: HEK293SFM cells (membrane preparation)
The test can be described thus: Inhibition of histamine H4 receptor (Table A1; H4 membrane binding assay).
Conditions: not given
An outline of the steps:
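Membranes came from recombinant HEK293SFM cells expressing human H4, homogenized in 50 mM Tris-HCl pH 7.5 with protease inhibitors. Nonspecific binding was set with 1000× unlabeled ligand. Bound radioligand was separated on PEI-treated GF/B filters and counted by liquid scintillation.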
`CN1CCN(c2cc(N3CCc4ccc(-c5cnc(N6CCN(C(=O)OC(C)(C)C)CC6)nc5)cc4C3)nc(N)n2)CC1` [Example 8, tert-Butyl 4-(5-{2-[2-amino-6-(4-methylpiperazin-1-yl)pyrimidin-4-yl]-1,2,3,4-tetrahydroisoquinolin-7-yl}pyrimidin-2-yl)piperazine-1-carboxylate] displayed an inhibition at 1 µM of 35%.

Staying with this test, now noted: histamine H4 receptor; "> a" = exceeds experiment limit.
In the case of `CC(=O)Nc1ccc(-c2ccc3c(c2)CN(c2cc(N4CCN(C)CC4)nc(N)n2)CC3)cn1` [Example 3, N-(5-{2-[2-Amino-6-(4-methylpiperazin-1-yl)pyrimidin-4-yl]-1,2,3,4-tetrahydroisoquinolin-7-yl}pyridin-2-yl)acetamide], the IC50 was determined as 0.031 µM. For `CN1CCN(c2cc(N3CCc4ccc(-c5cnn(C)c5)cc4C3)nc(N)n2)CC1` [Example 4, 4-(4-Methylpiperazin-1-yl)-6-[7-(1-methyl-1H-pyrazol-4-yl)-3,4-dihydroisoquinolin-2(1H)-yl]pyrimidin-2-amine], the 50% inhibitory concentration (IC50) is 0.08 µM. Still for that read-out and setting: next, `CN1CCN(c2cc(-c3ccc4c(c3)CN(c3cc(N5CCN(C)CC5)nc(N)n3)CC4)ccn2)CC1` [Example 5, 4-(4-Methylpiperazin-1-yl)-6-[7-[2-(4-methylpiperazin-1-yl)pyridin-4-yl]-3,4-dihydroisoquinolin-2(1H)-yl]pyrimidin-2-amine]: 0.128 µM; `CN1CCN(c2cc(N3CCc4ccc(-c5cnc(Cl)c(F)c5)cc4C3)nc(N)n2)CC1` [Example 6, 4-[7-(6-Chloro-5-fluoropyridin-3-yl)-3,4-dihydroisoquinolin-2(1H)-yl]-6-(4-methylpiperazin-1-yl)pyrimidin-2-amine]: 0.061 µM. `CN1CCN(c2cc(N3CCc4ccc(-c5cnc(C#N)c(F)c5)cc4C3)nc(N)n2)CC1` [Example 7, 5-{2-[2-Amino-6-(4-methylpiperazin-1-yl)pyrimidin-4-yl]-1,2,3,4-tetrahydroisoquinolin-7-yl}-3-fluoropyridine-2-carbonitrile] had an IC50 of 0.076 µM.

`CN1CCN(c2cc(N3CCc4ccc(-c5cnc(N6CCN(C(=O)OC(C)(C)C)CC6)nc5)cc4C3)nc(N)n2)CC1` [Example 8, tert-Butyl 4-(5-{2-[2-amino-6-(4-methylpiperazin-1-yl)pyrimidin-4-yl]-1,2,3,4-tetrahydroisoquinolin-7-yl}pyrimidin-2-yl)piperazine-1-carboxylate] gave a half-inhibitory concentration (IC50) above 1 µM. `CN1CCN(c2cc(N3CCc4ccc(-c5cnc(N6CCNCC6)nc5)cc4C3)nc(N)n2)CC1` [Example 9, 4-(4-Methylpiperazin-1-yl)-6-[7-(2-piperazin-1-yipyrimidin-5-yl)-3,4-dihydroisoquinolin-2(1H)-yl]pyrimidin-2-amine] returned an IC50 of 0.089 µM.

`CCOc1ccc(Cn2cc(-c3ccc4c(c3)CN(c3cc(N5CCN(C)CC5)nc(N)n3)CC4)cn2)cn1` [Example 10, 4-[7-{1-[(6-Ethoxypyridin-3-yl)methyl]-1H-pyrazol-4-yl}-3,4-dihydroisoquinolin-2(1H)-yl]-6-(4-methylpiperazin-1-yl)pyrimidin-2-amine] came in with an IC50 of 0.102 µM.

`CN1CCN(c2cc(N3CCc4ccc(-c5cnn(C6(CC#N)CCCC6)c5)cc4C3)nc(N)n2)CC1` [Example 11, [1-(4-{2-[2-Amino-6-(4-methylpiperazin-1-yl)pyrimidin-4-yl]-1,2,3,4-tetrahydroisoquinolin-7-yl}-1,1-pyrazol-1-yl)cyclopentyl]acetonitrile] registered a concentration for half-maximal inhibition (IC50) of 0.11 µM. The same measure, in the same setting: next, `CN1CCN(c2cc(N3CCc4ccc(-c5cnn(C6CCN(C(=O)OC(C)(C)C)CC6)c5)cc4C3)nc(N)n2)CC1` [Example 12, tert-Butyl 4-(4-{2-[2-amino-6-(4-methylpiperazin-1-yl)pyrimidin-4-yl]-1,2,3,4-tetrahydroisoquinolin-7-yl}-1H-pyrazol-1-yl)piperidine-1-carboxylate]: 0.489 µM; `CN1CCN(c2cc(N3CCc4ccc(-c5cnn(C6CCNCC6)c5)cc4C3)nc(N)n2)CC1` [Example 13, 4-(4-Methylpiperazin-1-yl)-6-[7-(1-piperidin-4-yl-1H-pyrazol-4-yl)-3,4-dihydroisoquinolin-2 (1H)-yl]pyrimidin-2-amine]: 0.035 µM; `CN1CCN(c2cc(N3CCc4ccc(-n5cc(Cl)cn5)cc4C3)nc(N)n2)CC1` [Example 14, 4-[7-(4-Chloro-1,1-pyrazol-1-yl)-3,4-dihydroisoquinolin-2(1H)-yl]-6-(4-methylpiperazin-1-yl)pyrimidin-2-amine]: 0.223 µM.

Take `CN1CCN(c2cc(N3Cc4ccccc4C[C@H]3CO)nc(N)n2)CC1` [Example 15, {(3S)-2-[2-Amino-6-(4-methylpiperazin-1-yl)pyrimidin-4-yl]-1,2,3,4-tetrahydroisoquinolin-3-yl}methanol]: the IC50 was determined as 0.145 µM. On to `Cc1cccc(Nc2ccc3c(c2)CN(c2cc(N4CCN(C)CC4)nc(N)n2)CC3)n1` [Example 16, 2-[2-Amino-6-(4-methylpiperazin-1-yl)pyrimidin-4-yl]-N-(6-methylpyridin-2-yl)-1,2,3,4-tetrahydroisoquinolin-7-amine], for which the IC50 is 0.543 µM. Compound `CN1CCN(c2cc(N3CCc4ccc(Oc5ccccc5Cl)cc4C3)nc(N)n2)CC1` [Example 17, 4-[7-(2-Chlorophenoxy)-3,4-dihydroisoquinolin-2(1H)-yl]-6-(4-methylpiperazin-1-yl)pyrimidin-2-amine] returned an IC50 of 0.285 µM. Still for that read-out and setting: next, `CN1CCN(c2cc(N3CCc4ccc(-c5ccc(C(=O)NCc6ccccn6)nc5)cc4C3)nc(N)n2)CC1` [Example 18, 5-{2-[2-Amino-6-(4-methylpiperazin-1-yl)pyrimidin-4-yl]-1,2,3,4-tetrahydroisoquinolin-7-yl}-N-(pyridin-2-ylmethyl)pyridine-2-carboxamide]: 0.065 µM; `CN1CCN(c2cc(N3CCc4ccc(-c5ccc(C(=O)NCC(C)(C)O)nc5)cc4C3)nc(N)n2)CC1` [Example 19, 5-{2-[2-Amino-6-(4-methylpiperazin-1-yl)pyrimidin-4-yl]-1,2,3,4-tetrahydroisoquinolin-7-yl}-N-(2-hydroxy-2-methylpropyl)pyridine-2-carboxamide]: 0.11 µM; `CN1CCN(c2cc(N3CCc4ccc(-c5ccc(C(=O)N[C@H]6CC[C@H](O)CC6)nc5)cc4C3)nc(N)n2)CC1` [Example 20, 5-{2-[2-Amino-6-(4-methylpiperazin-1-yl)pyrimidin-4-yl]-1,2,3,4-tetrahydroisoquinolin-7-yl}-N-(trans-4-hydroxycyclohexyl)pyridine-2-carboxamide]: 0.113 µM. The same measure, in the same setting: the same measure for `CN1CCN(c2cc(N3CCCc4ccc(O)cc43)nc(N)n2)CC1` [Example 21, 1-[2-Amino-6-(4-methylpiperazin-1-yl)pyrimidin-4-yl]-1,2,3,4-tetrahydroquinolin-7-ol]: 0.181 µM; for `CN1CCN(c2cc(N3CCc4ccc(Oc5ccc(C#N)c(Cl)c5)cc4C3)nc(N)n2)CC1` [Example 22, 4-({2-[2-Amino-6-(4-methylpiperazin-1-yl)pyrimidin-4-yl]-1,2,3,4-tetrahydroisoquinolin-7-yl}oxy)-2-chlorobenzonitrile]: 0.367 µM; for `CN1CCN(c2cc(N3Cc4ccccc4CC3=O)nc(N)n2)CC1` [Example 23, 2-[2-Amino-6-(4-methylpiperazin-1-yl)pyrimidin-4-yl]-1,4-dihydroisoquinolin-3(2H)-one]: 0.158 µM. As to `CN1CCN(c2cc(N3CCc4ccc(C(=O)N5CCC(c6ccccc6)C5)cc4C3)nc(N)n2)CC1` (centres unmarked) [Example 24, 4-(4-Methylpiperazin-1-yl)-6-[7-[(3-phenylpyrrolidin-1-yl)carbonyl]-3,4-dihydroisoquinolin-2(1H)-yl]pyrimidin-2-amine], the concentration for half-maximal inhibition (IC50) turned out to be 0.966 µM.

Values taken from US20130244999A1, “Substituted Heterocyclic Compounds” (Incyte Corporation, priority 2008, published 2013).
